Assay results: ChEMBL document CHEMBL4177650, “Synthesis and biological evolution of hydrazones derived from 4-(trifluoromethyl)benzohydrazide” (Bioorg Med Chem Lett, 2017)
Converted amounts (≈) assume the structure as drawn.

Test system: Escherichia coli
Experiment: Antibacterial activity against gram-negative Escherichia coli CCM 4517 after 24 hrs by microdilution broth method
Type: functional
Conditions: CCM 4517, 24 h

Row | Structure (SMILES) | MIC
1 | NNC(=O)c1ccc(C(F)(F)F)cc1 | > 500 µM

Test system: Enterococcus faecalis
Experiment: Antibacterial activity against gram-positive Enterococcus faecalis J 14365/08 after 48 hrs by microdilution broth method
Type: functional
Conditions: J 14365/08, 48 h

Row | Structure (SMILES) | MIC
2 | NNC(=O)c1ccc(C(F)(F)F)cc1 | > 500 µM

Test system: Mycobacterium avium
Experiment: Antimycobacterial activity against Mycobacterium avium 330/88 after 14 days by micromethod
Type: functional
Conditions: 330/88, 336 h

Row | Structure (SMILES) | MIC
3 | NNC(=O)c1ccc(C(F)(F)F)cc1 | > 500 µM
4 | O=C(NN=C1CCCCC1)c1ccc(C(F)(F)F)cc1 | > 125 µM
5 | NNC(=O)c1ccncc1 [ISONIAZID] | > 250 µM
6 | O=C(NN=C1CCCC1)c1ccc(C(F)(F)F)cc1 | > 125 µM

Test system: Candida tropicalis
Experiment: Antifungal activity against Candida tropicalis 156 after 24 hrs by microdilution broth method
Type: functional
Conditions: Candida tropicalis, 156, 24 h

Row | Structure (SMILES) | MIC
7 | NNC(=O)c1ccc(C(F)(F)F)cc1 | > 500 µM
8 | OC(Cn1cncn1)(Cn1cncn1)c1ccc(F)cc1F [FLUCONAZOLE] | > 500 µM

Test system: Staphylococcus aureus
Experiment: Antibacterial activity against gram-positive methicillin-resistant Staphylococcus aureus H 5996/08 after 48 hrs by microdilution broth method
Type: functional
Conditions: H 5996/08, 48 h

Row | Structure (SMILES) | MIC
9 | NNC(=O)c1ccc(C(F)(F)F)cc1 | > 500 µM

Test system: Candida tropicalis
Experiment: Antifungal activity against Candida tropicalis 156 after 48 hrs by microdilution broth method
Type: functional
Conditions: Candida tropicalis, 156, 48 h

Row | Structure (SMILES) | MIC
10 | NNC(=O)c1ccc(C(F)(F)F)cc1 | > 500 µM
11 | OC(Cn1cncn1)(Cn1cncn1)c1ccc(F)cc1F [FLUCONAZOLE] | > 500 µM

Test system: Escherichia coli
Experiment: Antibacterial activity against gram-negative Escherichia coli CCM 4517 after 48 hrs by microdilution broth method
Type: functional
Conditions: CCM 4517, 48 h

Row | Structure (SMILES) | MIC
12 | NNC(=O)c1ccc(C(F)(F)F)cc1 | > 500 µM

Test system: Staphylococcus epidermidis
Experiment: Antibacterial activity against gram-positive Staphylococcus epidermidis H 6966/08 after 24 hrs by microdilution broth method
Type: functional
Conditions: H 6966/08, 24 h

Row | Structure (SMILES) | MIC
13 | NNC(=O)c1ccc(C(F)(F)F)cc1 | > 500 µM

Test system: Nakaseomyces glabratus
Experiment: Antifungal activity against Candida glabrata 20/I after 48 hrs by microdilution broth method
Type: functional
Conditions: not given

Row | Structure (SMILES) | MIC
14 | NNC(=O)c1ccc(C(F)(F)F)cc1 | > 500 µM
15 | OC(Cn1cncn1)(Cn1cncn1)c1ccc(F)cc1F [FLUCONAZOLE] | 500 µM (≈ 153 µg/mL)

Test system: Mycobacterium kansasii
Experiment: Antimycobacterial activity against Mycobacterium kansasii 6509/80 after 21 days by micromethod
Type: functional
Conditions: 6509/80, 504 h

Row | Structure (SMILES) | MIC
16 | NNC(=O)c1ccc(C(F)(F)F)cc1 | > 250 µM
17 | O=C(NN=C1CCCCC1)c1ccc(C(F)(F)F)cc1 | > 1000 µM
18 | NNC(=O)c1ccncc1 [ISONIAZID] | > 250 µM
19 | O=C(NN=C1CCCC1)c1ccc(C(F)(F)F)cc1 | > 1000 µM

Test system: Pichia kudriavzevii
Experiment: Antifungal activity against Candida krusei E28 after 24 hrs by microdilution broth method
Type: functional
Conditions: E28, 24 h

Row | Structure (SMILES) | MIC
20 | NNC(=O)c1ccc(C(F)(F)F)cc1 | > 500 µM
21 | OC(Cn1cncn1)(Cn1cncn1)c1ccc(F)cc1F [FLUCONAZOLE] | 125 µM (≈ 38.3 µg/mL)

Test system: Mycobacterium kansasii
Experiment: Antimycobacterial activity against Mycobacterium kansasii 6509/80 after 7 days by micromethod
Type: functional
Conditions: 6509/80, 168 h

Row | Structure (SMILES) | MIC
22 | NNC(=O)c1ccc(C(F)(F)F)cc1 | > 250 µM
23 | O=C(NN=C1CCCCC1)c1ccc(C(F)(F)F)cc1 | 500 µM (≈ 142 µg/mL)
24 | NNC(=O)c1ccncc1 [ISONIAZID] | > 250 µM
25 | O=C(NN=C1CCCC1)c1ccc(C(F)(F)F)cc1 | 500 µM (≈ 135 µg/mL)

Test system: Mycobacterium kansasii
Experiment: Antimycobacterial activity against Mycobacterium kansasii 6509/96 after 21 days by micromethod
Type: functional
Conditions: 6509/96, 504 h

Row | Structure (SMILES) | MIC
26 | NNC(=O)c1ccc(C(F)(F)F)cc1 | > 250 µM
27 | O=C(NN=C1CCCCC1)c1ccc(C(F)(F)F)cc1 | 1000 µM (≈ 284 µg/mL)
28 | NNC(=O)c1ccncc1 [ISONIAZID] | 8 µM (≈ 1.1 µg/mL)
29 | O=C(NN=C1CCCC1)c1ccc(C(F)(F)F)cc1 | 1000 µM (≈ 270 µg/mL)

Test system: Nakaseomyces glabratus
Experiment: Antifungal activity against Candida glabrata 20/I after 24 hrs by microdilution broth method
Type: functional
Conditions: not given

Row | Structure (SMILES) | MIC
30 | NNC(=O)c1ccc(C(F)(F)F)cc1 | > 500 µM
31 | OC(Cn1cncn1)(Cn1cncn1)c1ccc(F)cc1F [FLUCONAZOLE] | 31.2 µM (≈ 9.57 µg/mL)

Test system: Mycobacterium tuberculosis
Experiment: Antimycobacterial activity against Mycobacterium tuberculosis H37Rv 331/88 after 14 days by micromethod
Type: functional
Conditions: H37Rv 331/88, 336 h

Row | Structure (SMILES) | MIC
32 | NNC(=O)c1ccc(C(F)(F)F)cc1 | 250 µM (≈ 51 µg/mL)
33 | O=C(NN=C1CCCCC1)c1ccc(C(F)(F)F)cc1 | 250 µM (≈ 71.1 µg/mL)
34 | NNC(=O)c1ccncc1 [ISONIAZID] | 0.5 µM (≈ 0.0686 µg/mL)
35 | O=C(NN=C1CCCC1)c1ccc(C(F)(F)F)cc1 | 500 µM (≈ 135 µg/mL)

Test system: Mycobacterium kansasii
Experiment: Antimycobacterial activity against Mycobacterium kansasii 6509/96 after 14 days by micromethod
Type: functional
Conditions: 6509/96, 336 h

Row | Structure (SMILES) | MIC
36 | NNC(=O)c1ccc(C(F)(F)F)cc1 | > 250 µM
37 | O=C(NN=C1CCCCC1)c1ccc(C(F)(F)F)cc1 | 1000 µM (≈ 284 µg/mL)
38 | NNC(=O)c1ccncc1 [ISONIAZID] | 8 µM (≈ 1.1 µg/mL)
39 | O=C(NN=C1CCCC1)c1ccc(C(F)(F)F)cc1 | 1000 µM (≈ 270 µg/mL)

Test system: Pichia kudriavzevii
Experiment: Antifungal activity against Candida krusei E28 after 48 hrs by microdilution broth method
Type: functional
Conditions: E28, 48 h

Row | Structure (SMILES) | MIC
40 | NNC(=O)c1ccc(C(F)(F)F)cc1 | > 500 µM
41 | OC(Cn1cncn1)(Cn1cncn1)c1ccc(F)cc1F [FLUCONAZOLE] | 250 µM (≈ 76.6 µg/mL)

Test system: Staphylococcus aureus
Experiment: Antibacterial activity against gram-positive Staphylococcus aureus CCM 4516/08 after 24 hrs by microdilution broth method
Type: functional
Conditions: CCM 4516/08, 24 h

Row | Structure (SMILES) | MIC
42 | NNC(=O)c1ccc(C(F)(F)F)cc1 | > 500 µM

Test system: Mycobacterium kansasii
Experiment: Antimycobacterial activity against Mycobacterium kansasii 6509/80 after 14 days by micromethod
Type: functional
Conditions: 6509/80, 336 h

Row | Structure (SMILES) | MIC
43 | NNC(=O)c1ccc(C(F)(F)F)cc1 | > 250 µM
44 | O=C(NN=C1CCCCC1)c1ccc(C(F)(F)F)cc1 | > 1000 µM
45 | NNC(=O)c1ccncc1 [ISONIAZID] | > 250 µM
46 | O=C(NN=C1CCCC1)c1ccc(C(F)(F)F)cc1 | > 1000 µM

Test system: Trichophyton mentagrophytes
Experiment: Antifungal activity against Trichophyton mentagrophytes 445 after 120 hrs by microdilution broth method
Type: functional
Conditions: Trichophyton mentagrophytes, 445, 120 h

Row | Structure (SMILES) | MIC
47 | NNC(=O)c1ccc(C(F)(F)F)cc1 | > 500 µM
48 | OC(Cn1cncn1)(Cn1cncn1)c1ccc(F)cc1F [FLUCONAZOLE] | 125 µM (≈ 38.3 µg/mL)

Test system: Mycobacterium avium
Experiment: Antimycobacterial activity against Mycobacterium avium 330/88 after 21 days by micromethod
Type: functional
Conditions: 330/88, 504 h

Row | Structure (SMILES) | MIC
49 | NNC(=O)c1ccc(C(F)(F)F)cc1 | > 500 µM
50 | O=C(NN=C1CCCCC1)c1ccc(C(F)(F)F)cc1 | > 125 µM
51 | NNC(=O)c1ccncc1 [ISONIAZID] | > 250 µM
52 | O=C(NN=C1CCCC1)c1ccc(C(F)(F)F)cc1 | > 125 µM

Test system: Trichophyton mentagrophytes
Experiment: Antifungal activity against Trichophyton mentagrophytes 445 after 72 hrs by microdilution broth method
Type: functional
Conditions: Trichophyton mentagrophytes, 445, 72 h

Row | Structure (SMILES) | MIC
53 | NNC(=O)c1ccc(C(F)(F)F)cc1 | > 500 µM
54 | OC(Cn1cncn1)(Cn1cncn1)c1ccc(F)cc1F [FLUCONAZOLE] | 7.81 µM (≈ 2.39 µg/mL)

Test system: Staphylococcus aureus
Experiment: Antibacterial activity against gram-positive methicillin-resistant Staphylococcus aureus H 5996/08 after 24 hrs by microdilution broth method
Type: functional
Conditions: H 5996/08, 24 h

Row | Structure (SMILES) | MIC
55 | NNC(=O)c1ccc(C(F)(F)F)cc1 | > 500 µM

Test system: Staphylococcus epidermidis
Experiment: Antibacterial activity against gram-positive Staphylococcus epidermidis H 6966/08 after 48 hrs by microdilution broth method
Type: functional
Conditions: H 6966/08, 48 h

Row | Structure (SMILES) | MIC
56 | NNC(=O)c1ccc(C(F)(F)F)cc1 | > 500 µM

Test system: Enterococcus faecalis
Experiment: Antibacterial activity against gram-positive Enterococcus faecalis J 14365/08 after 24 hrs by microdilution broth method
Type: functional
Conditions: J 14365/08, 24 h

Row | Structure (SMILES) | MIC
57 | NNC(=O)c1ccc(C(F)(F)F)cc1 | > 500 µM

Test system: not listed separately
Experiment: Solubility of the compound in Mueller-Hinton broth
Type: physicochemical
Conditions: not given

Row | Structure (SMILES) | solubility
58 | O=C(N/N=C/c1ccc(Br)cc1)c1ccc(C(F)(F)F)cc1 | Insoluble

Test system: Staphylococcus aureus
Experiment: Antibacterial activity against gram-positive Staphylococcus aureus CCM 4516/08 after 48 hrs by microdilution broth method
Type: functional
Conditions: CCM 4516/08, 48 h

Row | Structure (SMILES) | MIC
59 | NNC(=O)c1ccc(C(F)(F)F)cc1 | > 500 µM

Test system: Mycobacterium tuberculosis
Experiment: Antimycobacterial activity against Mycobacterium tuberculosis H37Rv 331/88 after 21 days by micromethod
Type: functional
Conditions: H37Rv 331/88, 504 h

Row | Structure (SMILES) | MIC
60 | NNC(=O)c1ccc(C(F)(F)F)cc1 | 500 µM (≈ 102 µg/mL)
61 | O=C(NN=C1CCCCC1)c1ccc(C(F)(F)F)cc1 | 500 µM (≈ 142 µg/mL)
62 | NNC(=O)c1ccncc1 [ISONIAZID] | 1 µM (≈ 0.137 µg/mL)
63 | O=C(NN=C1CCCC1)c1ccc(C(F)(F)F)cc1 | 500 µM (≈ 135 µg/mL)

Test system: Mycobacterium kansasii
Experiment: Antimycobacterial activity against Mycobacterium kansasii 6509/96 after 7 days by micromethod
Type: functional
Conditions: 6509/96, 168 h

Row | Structure (SMILES) | MIC
64 | NNC(=O)c1ccc(C(F)(F)F)cc1 | > 250 µM
65 | O=C(NN=C1CCCCC1)c1ccc(C(F)(F)F)cc1 | 500 µM (≈ 142 µg/mL)
66 | NNC(=O)c1ccncc1 [ISONIAZID] | 8 µM (≈ 1.1 µg/mL)
67 | O=C(NN=C1CCCC1)c1ccc(C(F)(F)F)cc1 | 500 µM (≈ 135 µg/mL)
